Experimental data reported in PubChem BioAssay (NCI).
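The compound was tested at five concentrations on cells cultured in 96-well plates, with a 48-hour exposure period. TGI denotes the concentration required for complete inhibition of growth.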

Legend:
Experiment in all cases: growth of human tumour cells (NCI), 48 h
HCT-15 colon = test system: HCT-15 colon
OVCAR-5 ovarian = test system: OVCAR-5 ovarian
LOX IMVI melanoma = test system: LOX IMVI melanoma
NCI-H522 lung = test system: NCI-H522 lung
T-47D breast = test system: T-47D breast
SK-OV-3 ovarian = test system: SK-OV-3 ovarian
SNB-75 CNS = test system: SNB-75 CNS
UACC-257 melanoma = test system: UACC-257 melanoma
ACHN renal = test system: ACHN renal
HL-60(TB) leukemia = test system: HL-60(TB) leukemia

`CCCCCCOC(=O)/C=C/[C@]1(CO)C/C(=C/CC(C(C)C)C(C)C)C(=O)O1` gave a TGI (HCT-15 colon) of 28.6 µM, a TGI (OVCAR-5 ovarian) of 25.6 µM and a TGI (LOX IMVI melanoma) of 24.6 µM. The TGI (NCI-H522 lung) was 25.9 µM, the TGI (T-47D breast) was 37.5 µM and the TGI (SK-OV-3 ovarian) was 37.7 µM. The TGI (SNB-75 CNS) was 27.7 µM, the TGI (UACC-257 melanoma) was 31.6 µM and the TGI (ACHN renal) was 20.7 µM. For the same molecule, the TGI (HL-60(TB) leukemia) was 23.2 µM.
`CN1CCN(C(=S)N2CCN(C)CC2)CC1` showed a TGI (HCT-15 colon) of over 100 µM, a TGI (OVCAR-5 ovarian) of over 100 µM and a TGI (LOX IMVI melanoma) of over 100 µM. It also gave a TGI (NCI-H522 lung) of over 45.6 µM, a TGI (T-47D breast) of over 100 µM and a TGI (SK-OV-3 ovarian) of over 100 µM. The TGI (SNB-75 CNS) was over 26.3 µM, the TGI (UACC-257 melanoma) was over 100 µM and the TGI (ACHN renal) was over 100 µM. The TGI (HL-60(TB) leukemia) was over 100 µM.
`CCCCCCc1cc2cc(C(=O)Nc3ccccc3)c(=N)oc2cc1O` gave a TGI (HCT-15 colon) of over 100 µM, a TGI (OVCAR-5 ovarian) of over 100 µM and a TGI (LOX IMVI melanoma) of 12.5 µM. The TGI (NCI-H522 lung) was 6.02 µM, the TGI (T-47D breast) was over 47.1 µM and the TGI (SK-OV-3 ovarian) was over 26.5 µM. It also gave a TGI (SNB-75 CNS) of over 100 µM, a TGI (UACC-257 melanoma) of over 100 µM and a TGI (ACHN renal) of over 100 µM. It also gave a TGI (HL-60(TB) leukemia) of over 100 µM.
Molecule `CCOC1OC(=O)c2cc3ccc4c(c3c(-c3ccc5c(c3)OCO5)c21)OCO4` (centres undefined) has a TGI (HCT-15 colon) of over 100 µM, a TGI (OVCAR-5 ovarian) of over 100 µM and a TGI (LOX IMVI melanoma) of over 100 µM. The TGI (NCI-H522 lung) was 6.9 µM, the TGI (T-47D breast) was over 100 µM and the TGI (SK-OV-3 ovarian) was over 29.9 µM. The TGI (SNB-75 CNS) was 15.5 µM, the TGI (UACC-257 melanoma) was over 84.5 µM and the TGI (ACHN renal) was over 100 µM. It also gave a TGI (HL-60(TB) leukemia) of over 100 µM.
For `CC1OC(OC2C(O)COC(OC3C(C)OC(OC4C(OC(=O)[C@]56CCC(C)(C)C[C@@H]5C5=CCC7[C@@]8(C)C[C@H](O)[C@H](OC9OC(CO)C(O)C(O)C9O)[C@@](C)(CO)[C@@H]8CC[C@@]7(C)[C@]5(C)CC6)OCC(O)C4O)C(O)C3OC3OCC(O)(CO)C3O)C2O)C(O)C(O)C1O` (some centres undefined), the TGI (HCT-15 colon) was 38.7 µM, the TGI (OVCAR-5 ovarian) was 24.3 µM and the TGI (LOX IMVI melanoma) was 43.2 µM. It also gave a TGI (NCI-H522 lung) of 35.7 µM, a TGI (T-47D breast) of 51.1 µM and a TGI (SK-OV-3 ovarian) of 34.8 µM. For the same molecule, the TGI (SNB-75 CNS) was 39.6 µM, the TGI (UACC-257 melanoma) was 28.5 µM and the TGI (ACHN renal) was 34 µM. For the same molecule, the TGI (HL-60(TB) leukemia) was 30.2 µM.
`Cn1ccc(C(=O)NCCN(CCNC(=O)c2ccn(C)c(=O)c2O)CCNC(=O)c2cccc(=O)n2O)c(O)c1=O` showed a TGI (HCT-15 colon) of over 100 µM, a TGI (OVCAR-5 ovarian) of over 100 µM and a TGI (LOX IMVI melanoma) of over 100 µM. The TGI (NCI-H522 lung) was over 100 µM, the TGI (T-47D breast) was over 100 µM and the TGI (SK-OV-3 ovarian) was over 100 µM. The TGI (SNB-75 CNS) was over 100 µM, the TGI (UACC-257 melanoma) was over 100 µM and the TGI (ACHN renal) was over 100 µM. The TGI (HL-60(TB) leukemia) was over 100 µM.
`O=C(Oc1ccccn1)c1cc2cc(CCl)ccc2oc1=O` showed a TGI (HCT-15 colon) of over 100 µM, a TGI (OVCAR-5 ovarian) of over 100 µM and a TGI (LOX IMVI melanoma) of over 100 µM. For the same molecule, the TGI (NCI-H522 lung) was 30.3 µM, the TGI (T-47D breast) was over 100 µM and the TGI (SK-OV-3 ovarian) was over 100 µM. For the same molecule, the TGI (SNB-75 CNS) was 62.1 µM, the TGI (UACC-257 melanoma) was over 100 µM and the TGI (ACHN renal) was over 100 µM. It also gave a TGI (HL-60(TB) leukemia) of over 100 µM.
With `Nc1nc(SC/C=C/c2ccccc2)c2[nH]cnc2n1` the TGI (HCT-15 colon) was over 100 µM, the TGI (OVCAR-5 ovarian) was over 100 µM and the TGI (LOX IMVI melanoma) was over 100 µM. For the same molecule, the TGI (NCI-H522 lung) was over 100 µM, the TGI (T-47D breast) was over 100 µM and the TGI (SK-OV-3 ovarian) was over 100 µM. It also gave a TGI (SNB-75 CNS) of over 100 µM, a TGI (UACC-257 melanoma) of over 100 µM and a TGI (ACHN renal) of over 100 µM. The TGI (HL-60(TB) leukemia) was over 100 µM.
`CN=C(N=Nc1c(O)[nH]c2ccccc12)SCC(=O)c1ccc(Br)cc1` was tested, and the TGI (HCT-15 colon) was over 89.3 µM, the TGI (OVCAR-5 ovarian) was over 88.8 µM and the TGI (LOX IMVI melanoma) was over 47.7 µM. For the same molecule, the TGI (NCI-H522 lung) was over 56.7 µM, the TGI (T-47D breast) was over 100 µM and the TGI (SK-OV-3 ovarian) was 28.4 µM. It also gave a TGI (SNB-75 CNS) of 27.5 µM, a TGI (UACC-257 melanoma) of over 20 µM and a TGI (ACHN renal) of 52.2 µM. For the same molecule, the TGI (HL-60(TB) leukemia) was over 100 µM.
For `NC(=O)C(C(N)=O)=C(O)C(=O)/C=C(\O)c1ccccc1`, the TGI (HCT-15 colon) was over 100 µM, the TGI (OVCAR-5 ovarian) was over 100 µM and the TGI (LOX IMVI melanoma) was over 100 µM. For the same molecule, the TGI (NCI-H522 lung) was 36.2 µM, the TGI (T-47D breast) was over 100 µM and the TGI (SK-OV-3 ovarian) was over 100 µM. For the same molecule, the TGI (SNB-75 CNS) was over 100 µM, the TGI (UACC-257 melanoma) was over 100 µM and the TGI (ACHN renal) was over 100 µM. It also gave a TGI (HL-60(TB) leukemia) of 58.8 µM.
With `O=[N+]([O-])/C(C(Cl)=C(Cl)Cl)=C(/Cl)Sc1ccccc1` the TGI (HCT-15 colon) was 4.85 µM, the TGI (OVCAR-5 ovarian) was 3.9 µM and the TGI (LOX IMVI melanoma) was 3.65 µM. The TGI (NCI-H522 lung) was 4.42 µM, the TGI (T-47D breast) was 7.47 µM and the TGI (SK-OV-3 ovarian) was 34.3 µM. It also gave a TGI (SNB-75 CNS) of 28.8 µM, a TGI (UACC-257 melanoma) of 2.55 µM and a TGI (ACHN renal) of 3.93 µM. For the same molecule, the TGI (HL-60(TB) leukemia) was 0.318 µM.
In the case of `CCOC(=O)c1nnc2c(C(=O)OCC)c3ccccc3n2c1N`, the TGI (HCT-15 colon) was over 100 µM, the TGI (OVCAR-5 ovarian) was over 100 µM and the TGI (LOX IMVI melanoma) was over 100 µM. It also gave a TGI (NCI-H522 lung) of over 100 µM, a TGI (T-47D breast) of over 100 µM and a TGI (SK-OV-3 ovarian) of 91.8 µM. It also gave a TGI (SNB-75 CNS) of 67.3 µM, a TGI (UACC-257 melanoma) of 11.1 µM and a TGI (ACHN renal) of over 100 µM. The TGI (HL-60(TB) leukemia) was 5.52 µM.
`CC(CO)(CO)N1C(=O)C2C3C=CC(C3)C2C1=O` (centres undefined) was tested, and the TGI (HCT-15 colon) was over 100 µM, the TGI (OVCAR-5 ovarian) was over 100 µM and the TGI (LOX IMVI melanoma) was over 100 µM. It also gave a TGI (NCI-H522 lung) of over 100 µM, a TGI (T-47D breast) of over 100 µM and a TGI (SK-OV-3 ovarian) of over 100 µM. It also gave a TGI (SNB-75 CNS) of over 100 µM, a TGI (UACC-257 melanoma) of over 100 µM and a TGI (ACHN renal) of over 100 µM. For the same molecule, the TGI (HL-60(TB) leukemia) was over 100 µM.
Work on `CSc1ncnc2c1ncn2CCC(=O)OC(C)(C)C` yielded a TGI (OVCAR-5 ovarian) of over 100 µM, a TGI (LOX IMVI melanoma) of over 100 µM and a TGI (NCI-H522 lung) of over 100 µM. The TGI (T-47D breast) was over 100 µM, the TGI (SK-OV-3 ovarian) was over 100 µM and the TGI (SNB-75 CNS) was over 100 µM. It also gave a TGI (UACC-257 melanoma) of over 100 µM, a TGI (ACHN renal) of over 100 µM and a TGI (HL-60(TB) leukemia) of over 100 µM.
In the case of `CCOC(=O)CC[C@H](NC(=O)[C@H](N)Cc1ccc(N(CCCl)CCCl)cc1)C(=O)OCC`, the TGI (HCT-15 colon) was over 55.7 µM, the TGI (OVCAR-5 ovarian) was 65 µM and the TGI (LOX IMVI melanoma) was 41.6 µM. The TGI (NCI-H522 lung) was 18.3 µM, the TGI (T-47D breast) was 38.6 µM and the TGI (SK-OV-3 ovarian) was over 72.8 µM. It also gave a TGI (SNB-75 CNS) of 35.3 µM, a TGI (UACC-257 melanoma) of 37.9 µM and a TGI (ACHN renal) of over 100 µM. For the same molecule, the TGI (HL-60(TB) leukemia) was 36.6 µM.
`Clc1ccc(C2C3COc4ccccc4C3=NN2c2ccccc2)cc1` (centres undefined) gave a TGI (HCT-15 colon) of over 100 µM, a TGI (OVCAR-5 ovarian) of over 100 µM and a TGI (LOX IMVI melanoma) of over 48.7 µM. For the same molecule, the TGI (NCI-H522 lung) was over 100 µM, the TGI (T-47D breast) was over 100 µM and the TGI (SK-OV-3 ovarian) was over 100 µM. The TGI (SNB-75 CNS) was 98.9 µM, the TGI (UACC-257 melanoma) was over 100 µM and the TGI (ACHN renal) was over 100 µM. For the same molecule, the TGI (HL-60(TB) leukemia) was over 68.2 µM.
`CC1CCC(=O)C(C(=O)CC2CC(=O)N(C)C(=O)C2)C1` (centres undefined) gave a TGI (HCT-15 colon) of over 100 µM, a TGI (OVCAR-5 ovarian) of over 100 µM and a TGI (LOX IMVI melanoma) of over 100 µM. It also gave a TGI (NCI-H522 lung) of over 100 µM, a TGI (T-47D breast) of over 100 µM and a TGI (SK-OV-3 ovarian) of over 100 µM. For the same molecule, the TGI (SNB-75 CNS) was over 100 µM, the TGI (UACC-257 melanoma) was over 100 µM and the TGI (ACHN renal) was over 100 µM. It also gave a TGI (HL-60(TB) leukemia) of over 100 µM.
